Assay results as given in patent US11524938B2, “Aromatic sulfonamide derivatives” (Bayer Pharma Aktiengesellschaft, priority 2016, dated 2022).

Molecular target: T1, human P2X4 (Homo sapiens, UniProt Q99571)
T1 sequence (Q99571 1-388): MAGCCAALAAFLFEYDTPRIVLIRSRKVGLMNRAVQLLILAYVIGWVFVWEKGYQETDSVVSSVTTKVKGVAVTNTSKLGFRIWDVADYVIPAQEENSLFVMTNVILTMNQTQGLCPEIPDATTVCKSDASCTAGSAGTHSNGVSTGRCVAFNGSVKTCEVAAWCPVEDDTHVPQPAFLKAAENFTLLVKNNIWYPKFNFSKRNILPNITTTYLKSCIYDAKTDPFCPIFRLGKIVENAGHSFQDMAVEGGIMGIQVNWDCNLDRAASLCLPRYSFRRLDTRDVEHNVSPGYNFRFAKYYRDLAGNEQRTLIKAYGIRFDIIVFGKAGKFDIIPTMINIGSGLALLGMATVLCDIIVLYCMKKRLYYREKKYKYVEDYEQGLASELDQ
Test: Human P2X4 HEK Cell FLIPR Assay
Assay type: cell-based
Settings: agonist Bz-ATP at EC80; for Emax: HEK293, HEK293 cells, percentage of maximal inhibition, read-out: Human P2X4 HEK Cells (FLIPR Assay) avg Efficacy [%]; for IC50: HEK293 cells, individual values listed where some fall outside detection range
Outline: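 Calcium flux read by FLIPR for 120 sec after Bz-ATP challenge at EC80 (established each assay day), following 30 min room-temperature compound preincubation in dye-loaded stable human P2X4 HEK293 cells. Peak RFU over basal normalized to agonist control; IC50, maximal inhibition and Hill coefficient from triplicate means.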

`CCOC(=O)c1cnn(-c2ccc(NC(=O)Cc3ccccc3Cl)cc2S(N)(=O)=O)c1` [Example 235, Ethyl 1-(4-{[(2-chlorophenyl)acetyl]amino}-2-sulfamoylphenyl)-1H-pyrazole-4-carboxylate] was tested, and the Emax was 35% and the IC50 was > 25000 nM.
`NS(=O)(=O)c1cc(NC(=O)Cc2ccc(Cl)cc2Cl)ccc1-n1cc(C(F)(F)F)cn1` [Example 111, 2-(2,4-Dichlorophenyl)-N-{3-sulfamoyl-4-[4-(trifluoromethyl)-1H-pyrazol-1-yl]phenyl}-acetamide] was tested, and the Emax was 58% and the IC50 was 373 nM.
`Cc1cc(F)c(Br)cc1CC(=O)Nc1ccc(-n2cc(F)cn2)c(S(N)(=O)=O)c1` [Example 166, 2-(5-Bromo-4-fluoro-2-methylphenyl)-N-[4-(4-fluoro-1H-pyrazol-1-yl)-3-sulfamoylphenyl]acetamide] gave an Emax of 78% and an IC50 of 1520 nM.
`CC(C)c1ccccc1CC(=O)Nc1ccc(-n2cc(Cl)cn2)c(S(N)(=O)=O)c1` [Example 100, N-[4-(4-Chloro-1H-pyrazol-1-yl)-3-sulfamoylphenyl]-2-(2-isopropylphenyl)acetamide] showed an Emax of 86% and an IC50 of 319 nM.
In the case of `NS(=O)(=O)c1cc(NC(=O)Cc2ccccc2Cl)ccc1-c1cccc(C(F)(F)F)n1` [Example 295, 2-(2-Chlorophenyl)-N-{3-sulfamoyl-4-[6-(trifluoromethyl)pyridin-2-yl]phenyl}acetamide], the Emax is reported as 9% and the IC50 is reported as > 25000 nM.
For `NS(=O)(=O)c1cc(NC(=O)Cc2ccccc2F)ccc1-c1nnc(C2CC2)o1` [Example 376, N-[4-(5-Cyclopropyl-1,3,4-oxadiazol-2-yl)-3-sulfamoylphenyl]-2-(2-fluorophenyl)-acetamide], the Emax was 98% and the IC50 was 9 nM.
With `NS(=O)(=O)c1cc(NC(=O)Cc2ccccc2Cl)ccc1-n1cnc2ccncc21` [Example 46, 2-(2-Chlorophenyl)-N-[4-(3H-imidazo[4,5-c]pyridin-3-yl)-3-sulfamoylphenyl]-acetamide] the Emax was 87% and the IC50 was 916 nM.
Work on `COc1cccc(Cl)c1CC(=O)Nc1ccc(-n2cc(C#N)cn2)c(S(N)(=O)=O)c1` [Example 216, 2-(2-Chloro-6-methoxyphenyl)-N-[4-(4-cyano-1H-pyrazol-1-yl)-3-sulfamoyl-phenyl]acetamide] yielded an Emax of 101% and an IC50 of 96 nM.
For `N#Cc1cc(NC(=O)Cc2ccccc2Cl)cc(S(N)(=O)=O)c1-n1cc(C(F)(F)F)cn1` [Example 244, 2-(2-Chlorophenyl)-N-{3-cyano-5-sulfamoyl-4-[4-(trifluoromethyl)-1H-pyrazol-1-yl]-phenyl}acetamide], the Emax was 73% and the IC50 was 141 nM.
In the case of `NS(=O)(=O)c1cc(NC(=O)Cc2ccccc2Cl)ccc1-n1nc(C(F)F)cc1C1CC1` [Example 13, 2-(2-Chlorophenyl)-N-{4-[5-cyclopropyl-3-(difluoromethyl)-1H-pyrazol-1-yl]-3-sulfamoylphenyl}acetamide], the Emax is reported as 100% and the IC50 is reported as 514 nM.
Work on `CC(C)(C)n1cc(-c2ccc(NC(=O)Cc3ccccc3Cl)cc2S(N)(=O)=O)cn1` [Example 335, N-[4-(1-tert-Butyl-1H-pyrazol-4-yl)-3-sulfamoylphenyl]-2-(2-chlorophenyl)acetamide] yielded an Emax of 98% and an IC50 of 20 nM.
`CC(C)(O)CCn1cc(-c2ccc(NC(=O)Cc3ccccc3Cl)cc2S(N)(=O)=O)cn1` [Example 287, 2-(2-Chlorophenyl)-N-{4-[1-(3-hydroxy-3-methylbutyl)-1H-pyrazol-4-yl]-3-sulfamoyl-phenyl}acetamide] was tested, and the Emax was 78% and the IC50 was 31 nM.
For `Cc1nc(-c2ccc(NC(=O)Cc3ccccc3Cl)cc2S(N)(=O)=O)cs1` [Example 420, 2-(2-Chlorophenyl)-N-[4-(2-methyl-1,3-thiazol-4-yl)-3-sulfamoylphenyl]acetamide], the Emax was 75% and the IC50 was 69 nM.
With `NS(=O)(=O)c1cc(NC(=O)Cc2c(F)cccc2Cl)ccc1-c1cncc(C(F)(F)F)c1` [Example 445, 2-(2-Chloro-6-fluorophenyl)-N-{3-sulfamoyl-4-[5-(trifluoromethyl)pyridin-3-yl]phenyl}acetamide] the Emax was 71% and the IC50 was 60 nM.
`N#Cc1cnn(-c2ccc(NC(=O)Cc3cc(C(F)(F)F)ccc3Cl)cc2S(N)(=O)=O)c1` [Example 485, 2-[2-Chloro-5-(trifluoromethyl)phenyl]-N-[4-(4-cyano-1H-pyrazol-1-yl)-3-sulfamoylphenyl]acetamide] was tested, and the Emax was 100% and the IC50 was 128 nM.
Compound `COCCn1cc(-c2ccc(NC(=O)Cc3ccccc3Cl)cc2S(N)(=O)=O)cn1` [Example 268, 2-(2-Chlorophenyl)-N-{4-[1-(2-methoxyethyl)-1H-pyrazol-4-yl]-3-sulfamoylphenyl}-acetamide] has an Emax of 103% and an IC50 of 5 nM.
`NS(=O)(=O)c1cc(NC(=O)Cc2ccc(F)cc2Cl)ccc1-c1cnn(C2CC2)c1` [Example 278, 2-(2-Chloro-4-fluorophenyl)-N-[4-(1-cyclopropyl-1H-pyrazol-4-yl)-3-sulfamoyl-phenyl]acetamide] gave an Emax of 102% and an IC50 of 93 nM.
In the case of `NS(=O)(=O)c1cc(NC(=O)Cc2ccccc2Cl)ccc1-c1cnn(CC(F)F)c1` [Example 303, 2-(2-Chlorophenyl)-N-{4-[1-(2,2-difluoroethyl)-1H-pyrazol-4-yl]-3-sulfamoylphenyl}acetamide], the Emax is reported as 91% and the IC50 is reported as 97 nM.
Work on `NS(=O)(=O)c1cc(NC(=O)Cc2ccc(O)cc2)ccc1-n1cc(F)cn1` [Example 150, N-[4-(4-Fluoro-1H-pyrazol-1-yl)-3-sulfamoylphenyl]-2-(4-hydroxyphenyl)acetamide] yielded an Emax of 80% and an IC50 of 433 nM.
`COc1cnc(Cl)c(-c2ccc(NC(=O)Cc3ccccc3Cl)cc2S(N)(=O)=O)c1` [Example 290, N-[4-(2-Chloro-5-methoxypyridin-3-yl)-3-sulfamoylphenyl]-2-(2-chlorophenyl)acetamide] gave an Emax of 81% and an IC50 of 36 nM.
`CCOc1ccccc1CC(=O)Nc1ccc(-n2cc(C#N)cn2)c(S(N)(=O)=O)c1` [Example 199, N-[4-(4-Cyano-1H-pyrazol-1-yl)-3-sulfamoylphenyl]-2-(2-ethoxyphenyl)acetamide] gave an Emax of 85% and an IC50 of 299 nM.
`NS(=O)(=O)c1cc(NC(=O)Cc2cccc(Cl)c2)ccc1-c1cncc(C(F)(F)F)c1` [Example 453, 2-(3-Chlorophenyl)-N-{3-sulfamoyl-4-[5-(trifluoromethyl)pyridin-3-yl]phenyl}acetamide] gave an Emax of 77% and an IC50 of 74 nM.
In the case of `NS(=O)(=O)c1cc(NC(=O)Cc2ccncc2Cl)ccc1-n1cc(Br)cn1` [Example 72, N-[4-(4-Bromo-1H-pyrazol-1-yl)-3-sulfamoylphenyl]-2-(3-chloropyridin-4-yl)acetamide], the Emax is reported as 96% and the IC50 is reported as 576 nM.
For `NS(=O)(=O)c1cc(NC(=O)Cc2cc(F)cc(F)c2)ccc1-n1cc(F)cn1` [Example 146, 2-(3,5-Difluorophenyl)-N-[4-(4-fluoro-1H-pyrazol-1-yl)-3-sulfamoylphenyl]acetamide], the Emax was 66% and the IC50 was 364 nM.
`N#Cc1cnn(-c2cc(C(F)(F)F)c(NC(=O)Cc3ccccc3Cl)cc2S(N)(=O)=O)c1` [Example 484, 2-(2-Chlorophenyl)-N-[4-(4-cyano-1H-pyrazol-1-yl)-5-sulfamoyl-2-(trifluoromethyl)phenyl]acetamide] showed an Emax of 63% and an IC50 of 401 nM.
`NS(=O)(=O)c1cc(NC(=O)Cc2ccccc2Cl)ccc1-n1cc2ncccc2n1` [Example 255, 2-(2-Chlorophenyl)-N-[4-(2H-pyrazolo[4,3-b]pyridin-2-yl)-3-sulfamoylphenyl]-acetamide] gave an Emax of 81% and an IC50 of 25 nM.
`NS(=O)(=O)c1cc(NC(=O)Cc2cccc(F)c2)ccc1-n1cc(Br)cn1` [Example 65, N-[4-(4-Bromo-1H-pyrazol-1-yl)-3-sulfamoylphenyl]-2-(3-fluorophenyl)acetamide] showed an Emax of 62% and an IC50 of 355 nM.
`NS(=O)(=O)c1cc(NC(=O)Cc2ccccc2Cl)ccc1-n1cc(NC(=O)C2CC2)cn1` [Example 400, N-[1-(4-{[(2-Chlorophenyl)acetyl]amino}-2-sulfamoylphenyl)-1H-pyrazol-4-yl]cyclopropanecarboxamide] showed an Emax of 88% and an IC50 of 87 nM.
`NS(=O)(=O)c1cc(NC(=O)Cc2ccncc2Cl)ccc1-n1cnc(C(F)(F)F)n1` [Example 59, 2-(3-Chloropyridin-4-yl)-N-{3-sulfamoyl-4-[3-(trifluoromethyl)-1H-1,2,4-triazol-1-yl]phenyl}acetamide] gave an Emax of 73% and an IC50 of 4650 nM.
With `Cc1nc(C(F)(F)F)nn1-c1ccc(NC(=O)Cc2ccccc2Cl)cc1S(N)(=O)=O` [Example 8, 2-(2-Chlorophenyl)-N-{4-[5-methyl-3-(trifluoromethyl)-1H-1,2,4-triazol-1-yl]-3-sulfamoylphenyl}acetamide] the Emax was 79% and the IC50 was 2560 nM.
`NS(=O)(=O)c1cc(NC(=O)Cc2ccc(F)cc2F)ccc1-c1ccc(Cl)nc1` [Example 466, N-[4-(6-Chloropyridin-3-yl)-3-sulfamoylphenyl]-2-(2,4-difluorophenyl)acetamide] showed an Emax of 91% and an IC50 of 363 nM.
`NS(=O)(=O)c1cc(NC(=O)Cc2ccc(C(F)F)cc2)ccc1-n1cc(Cl)cn1` [Example 107, N-[4-(4-Chloro-1H-pyrazol-1-yl)-3-sulfamoylphenyl]-2-[4-(difluoromethyl)-phenyl]acetamide] was tested, and the Emax was 44% and the IC50 was > 25000 nM.
